According to US5804583A, “Pyrimidinone derivatives fused to nitrogen heterocycles having a II antagonistic activity” (Istituto Luso Farmaco D'Italia, priority 1993, dated 1998):

Key:
[1] = test system: A II receptor; assay: inhibition of the A II-induced contraction in the rabbit aorta
Text: (§1) The compounds described in the present invention act as antagonists at the A II receptor level. For the characterization and the evaluation of the effectiveness of the compounds of the invention, in vitro tests (such as the inhibition of the A II-induced contraction in the rabbit aorta and the displacement of ^125 I-Sar^1 -Ile^8 -AT II or [^3 H] AT II in the rat adrenal cortex) and an in vivo test (the inhibition of the A II-induced pressory response in the ganglio-blocked normotensive rat) were selected.

[2] = molecular target: A II receptor; assay: receptor binding test: displacement of 125I-Sar1-Ile8-AT II or [3H] AT II in the rat adrenal cortex
Text: as §1

CCCCc1c(Cc2ccc(-c3ccccc3-c3nnn[nH]3)cc2)c(=O)nc2n1C(C)C(=O)N2 (centres unmarked) [ex.6, 5-butyl-3-methyl-6-[[2'-(1H-tetrazol-5-yl)biphenyl-4-yl]methyl]imidazo[1,2-a]pyrimidin-2,7-dione]
PKB [1]: 10.4 | Ki [2]: 5 nM
